Data from patent US20240368192A1, “Nitrogen-Containing Heterocyclic Compound, and Preparation Method Therefor, Intermediate Thereof, and Application Thereof” (Shanghai Allist Pharmaceuticals Co., Ltd., priority 2021, published 2024).
Structures can show the parent of a compound that is named as a salt. Where two headings read alike, the source gives them in different places.

Assays:
Ba/F3 KRAS-G12V cells = Ba/F3 KRAS-G12V cells (Homo sapiens, UniProt P01116, G12V, cells depend on it); assay: Proliferation inhibitory activity on Ba/F3 KRAS-G12V stably transfected cell line (CellTiter-Glo, 72 hours); format: cell-based, mouse; conditions: read-out: Ba/F3 KRAS-G12V IC50
Source text: (§1) Test Example 1: Proliferation Inhibitory Activity on Ba/F3 KRAS-G12D, Ba/F3 KRAS-G12V Stably Transfected Cell Lines and AGS Tumor Cell Lines Containing KRAS G12D Mutations
(§2) To determine the proliferation inhibitory activity of the compounds in vitro on mouse pro-B cells Ba/F3 (Ba/F3 KRAS-G12D and Ba/F3 KRAS-G12V cells stably expressing KRAS G12D/V mutant proteins) and gastric cancer AGS cells expressing KRAS G12D mutant protein.
(§3) Cell sources. Ba/F3 KRAS-G12D and Ba/F3 KRAS-G12V were purchased from Kyinno Biotech (Beijing) Co., Ltd, Cat. No.: KC-1259 and KC-1261, respectively; AGS was purchased from Shanghai Bioleaf Biotech Co., Ltd.
(§4) Cells in the logarithmic growth phase were seeded in a 96-well plate (8000, 8000, 4000 cells/well, 90 μL/well for Ba/F3 KRAS-G12D, Ba/F3 KRAS-G12V, and AGS cells respectively), incubated at 37° C. for 1 day with 5% CO2, and then a gradient dilution of the test compound was added thereto (compounds 1 to 28 and comparative compounds). The details were as follows, the compound stock solution (10 mM) previously dissolved in DMSO was diluted to 10 gradient concentrations at a fold ratio (4 fold) and diluted to 10 fold of the target concentration in another 96-well plate with culture medium, and then 10 μL/well of the compound solution was added to the 96-well plate seeded with cells to reach the target concentration (10000, 2500, 625, 156, 39, 10, 2.5, 0.6, 0.15, 0.04 nM). Each concentration was provided with 3 duplicate wells and a blank control. After continued incubation at 37° C. and 5% CO2 for 72 hours, 50 μL of CellTiter-Glo*2.0 reagent (luciferase ATP bioluminescence detection reagent, purchased from Promega, Cat. No.: G9243) was added to each well, shaken for 2 minutes, and incubated at room temperature for 8 minutes, and then fluorescence luminescence intensity was detected (light collection time was 100 ms). The inhibitory rate of compounds with various concentrations on cell proliferation was calculated. Cell proliferation inhibition rate (%)=[(luminous intensitycontrol group containing cell culture medium for 72 hour−luminous intensitycompound group for 72 hour)/(luminous intensitycontrol group containing cell culture medium for 72 hours−luminous intensitycontrol group without cell culture medium for 72 hour)]×100%. GraphPad Prism 8.3 software was used to analyze the data, and nonlinear S-curve regression was used to fit the data to obtain a dose-effect curve, from which the IC50 value was calculated.

Ba/F3 KRAS-G12D cells = Ba/F3 KRAS-G12D cells (Homo sapiens, UniProt P01116, G12D, cells depend on it); assay: Proliferation inhibitory activity on Ba/F3 KRAS-G12D stably transfected cell line (CellTiter-Glo, 72 hours); format: cell-based, mouse; conditions: read-out: Ba/F3 KRAS-G12D IC50
Source text: as §1, §2, §3, §4

AGS cells = assay: Proliferation inhibitory activity on AGS tumor cell line containing KRAS G12D mutation (CellTiter-Glo, 72 hours); format: cell-based
Source text: as §1, §2, §3, §4

Sequence of Ba/F3 KRAS-G12V cells (P01116 whole entry G12V): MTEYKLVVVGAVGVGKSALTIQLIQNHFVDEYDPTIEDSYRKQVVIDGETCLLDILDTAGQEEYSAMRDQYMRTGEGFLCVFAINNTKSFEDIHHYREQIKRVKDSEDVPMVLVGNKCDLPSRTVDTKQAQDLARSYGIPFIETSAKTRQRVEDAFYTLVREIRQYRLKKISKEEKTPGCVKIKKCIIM
Sequence of Ba/F3 KRAS-G12D cells (P01116 whole entry G12D): as the sequence (P01116 whole entry G12V) above, with V12D counted along it

GI50 (Ba/F3 KRAS-G12V cells) [µM]	GI50 (Ba/F3 KRAS-G12D cells) [µM]	IC50 (AGS cells; Homo sapiens) [µM]	IC50 (AGS cells) [µM]	Compound
5 to 10	≤ 0.1	0.1 to 5		C#Cc1c(F)ccc2cc(O)cc(-c3ncc4c(N5CCC(N)C(F)(F)C5)nc(OC[C@@]56CCCN5C[C@H](F)C6)nc4c3F)c12 (single isomer, unassigned) [Compound 20-P1]
5 to 10	0.1 to 5		0.1 to 5	C#Cc1c(F)ccc2cc(O)cc(-c3ncc4c(N5CCC(N)C(F)(F)C5)nc(OC[C@@]56CCCN5C[C@H](F)C6)nc4c3F)c12 (single isomer, unassigned) [Compound 20-P2]
5 to 10	0.1 to 5	0.1 to 5		C#Cc1c(F)ccc2cc(O)cc(-c3ncc4c(N5C[C@H]6C[C@@]6(N)C5)nc(OC[C@@]56CCCN5C[C@H](F)C6)nc4c3F)c12 [Compound 10, 4-(4-((1S,5R)-1-Amino-3-azabicyclo[3.1.0]hexan-3-yl)-8-fluoro-2-(((2R,7aS)-2-fluorohexahydro-1H-pyrrolizin-7a-yl)methoxy)pyrido[4,3-d]pyrimidin-7-yl)-5-ethynyl-6-fluoronaphthalen-2-ol bis(2,2,2-trifluoroacetate)]

The remaining lines, values behind:

Compound	GI50 (Ba/F3 KRAS-G12V cells) [µM]	GI50 (Ba/F3 KRAS-G12D cells) [µM]	IC50 (AGS cells; Homo sapiens) [µM]	IC50 (AGS cells) [µM]
C#Cc1c(F)ccc2cc(O)cc(-c3ncc4c(N5C[C@H](N)CC(F)(F)C5)nc(OC[C@@]56CCCN5C[C@H](F)C6)nc4c3F)c12 [Compound 6-P1, 4-(4-((R)-5-Amino-3,3-difluoropiperidin-1-yl)-8-fluoro-2-(((2R,7aS)-2-fluorotetrahydro-1H-pyrrolizin-7a(5H)-yl)methoxy)pyrido[4,3-d]pyrimidin-7-yl)-5-ethynyl-6-fluoronaphthalen-2-ol]	5 to 10	0.1 to 5	5 to 10	
C#Cc1c(F)ccc2cc(O)cc(-c3ncc4c(N5C[C@@H](N)CC(F)(F)C5)nc(OC[C@@]56CCCN5C[C@H](F)C6)nc4c3F)c12 [Compound 6-P2, 4-(4-((S)-5-amino-3,3-difluoropiperidin-1-yl)-8-fluoro-2-(((2R,7aS)-2-fluorotetrahydro-1H-pyrrolizin-7a(5H)-yl)methoxy)pyrido[4,3-d]pyrimidin-7-yl)-5-ethynyl-6-fluoronaphthalen-2-ol]	5 to 10	≤ 0.1	0.1 to 5	
Cc1cc(N)nc(-c2nc(Cl)c3c(N4C[C@H]5CC[C@@H](C4)N5)nc(OC[C@@]45CCCN4C[C@H](F)C5)nc3c2F)c1C(F)(F)F [Compound 17, 6-(4-((1R,5S)-3,8-Diazabicyclo[3.2.1]octan-3-yl)-5-chloro-8-fluoro-2-(((2R,7aS)-2-fluorohexahydro-1H-pyrrolizin-7a-yl)methoxy)pyrido[4,3-d]pyrimidin-7-yl)-4-methyl-5-(trifluoromethyl)pyridin-2-amine bis(2,2,2-trifluoroacetate)]	5 to 10	0.1 to 5	5 to 10	
Cc1cc(N)nc(-c2nc(F)c3c(N4C[C@H]5CC[C@@H](C4)N5)nc(OC[C@@]45CCCN4C[C@H](F)C5)nc3c2F)c1C(F)(F)F [Compound 18, 6-(4-((1R,5S)-3,8-Diazabicyclo[3.2.1]octan-3-yl)-5,8-difluoro-2-(((2R,7aS)-2-fluorohexahydro-1H-pyrrolizin-7a-yl)methoxy)pyrido[4,3-d]pyrimidin-7-yl)-4-methyl-5-(trifluoromethyl)pyridin-2-amine bis(2,2,2-trifluoroacetate)]	5 to 10	0.1 to 5	5 to 10	
[2H]C#Cc1c(F)ccc2cc(O)cc(-c3nc(Cl)c4c(N5C[C@H]6CC[C@@H](C5)N6)nc(OC[C@@]56CCCN5C[C@H](F)C6)nc4c3F)c12 [Compound 28, 4-(4-((1R,5S)-3,8-Diazabicyclo[3.2.1]octan-3-yl)-5-chloro-8-fluoro-2-(((2R,7aS)-2-fluorotetrahydro-1H-pyrrolizin-7a(5H)-yl)methoxy)pyrido[4,3-d]pyrimidin-7-yl)-5-(ethynyl-d)-6-fluoronaphthalen-2-ol hydrochloride]		0.001	0.006	
